What was measured:
[1] = logP determination by HPLC on reversed-phase column (EEC Directive 79/831); format: physicochemical; details: 0.1% aqueous phosphoric acid/acetonitrile gradient; for chromatographic logP: reversed-phase HPLC column (C18), pH 2.3, reversed-phase C18, 43° C.; for logP (pH 2.3): reversed-phase C18, 43° C.
Experimental: The logP values given in the tables and preparation examples above are determined in accordance with EEC Directive 79/831 Annex V.48 by HPLC (High Performance Liquid Chromatography) on a reversed-phase column (C18). Temperature: 43° C. The determination is carried out in the acidic range at pH 2.3 using the mobile phases 0.1% aqueous phosphoric acid and acetonitrile; linear gradient from 10% acetonitrile to 90% acetonitrile. Calibration is carried out using unbranched […] (of 3 to 16 carbon atoms) with known logP values (determination of the logP values by the retention time using linear interpolation between two successive alkanones).

Podosphaera leucotricha = assay: Podosphaera test (apple)/protective; format: in vivo; details: 240 h, application rate 100 g/ha, apple plants, protective spray, evaluation 10 days after inoculation, 100% = no infection, read-out: Efficacy in %
Experimental: (§1) [table] To produce a suitable preparation of active compound, 1 part by weight of active compound is mixed with the stated amounts of solvent and emulsifier, and the concentrate is diluted with water to the desired concentration. To test for protective activity, young plants are sprayed with the preparation of active compound at the stated application rate. After the spray coating has dried on, the plants are inoculated with an aqueous spore suspension of the apple mildew pathogen Podosphaera leucotricha. The plants are then placed in a greenhouse at about 23° C. and a relative atmospheric humidity of about 70%. Evaluation is carried out 10 days after the inoculation. 0% means an efficacy which corresponds to that of the control, whereas an efficacy of 100% means that no infection is observed.

Sphaerotheca fuliginea = assay: Sphaerotheca test (cucumber)/protective; format: in vivo; details: Podosphaera fuliginea, 168 h; application rate 100 g/ha; cucumber plants, protective spray; evaluation 7 days after inoculation; 100% = no infection; read-out: Efficacy in %
Experimental: as §1, with “of Sphaerotheca fuliginea.” for “of the apple mildew pathogen Podosphaera leucotricha.”, “out 7” for “out 10”

Venturia inaequalis = assay: Venturia test (apple)/protective; format: in vivo; details: 240 h, application rate 100 g/ha, apple plants, protective spray, evaluation 10 days after inoculation, 100% = no infection, read-out: Efficacy in %
Experimental: as §1, with “conidia” for “spore”, “scab” for “mildew”, “Venturia inaequalis and then remain in an incubation cabin at about 20° C. and 100% relative atmospheric humidity for 1 day.” for “Podosphaera leucotricha.”, “21°” for “23°”, “90%.” for “70%.”

Alternaria solani = assay: Alternaria test (tomato)/protective; format: in vivo; details: application rate 750 g/ha; tomato plants, protective spray, inoculation 1 day after treatment; evaluation 7 days after inoculation; 100% = no infection
Experimental: [table] To produce a suitable p reparation of active compound, 1 part by weight of active compound is mixed with the stated amounts of solvent and emulsifier, and the concentrate is diluted with water to the desired concentration. To test for protective activity, young tomato plants are sprayed with the preparation of active compound at the stated application rate. 1 day after the treatment, the plants are inoculated with a spore suspension of Alternaria solani and are then kept at 100% relative atmospheric humidity and 20° C. for 24 h. The plants are then kept at 96% relative atmospheric humidity and a temperature of 20° C. Evaluation is carried out 7 days after the inoculation. 0% means an efficacy which corresponds to that of the control, whereas an efficacy of 100% means that no infection is observed.

SMILES	logP (pH 2.3) [1]	further results
O=C(Nc1ccccc1-c1ccc(Cl)cc1)c1ccccc1C(F)(F)F [Compound 1]	–	chromatographic logP [1]: 3.73; pest or weed control at 100 g/ha (Podosphaera leucotricha): 100%; pest or weed control at 100 g/ha (Sphaerotheca fuliginea): 94%; pest or weed control at 100 g/ha (Venturia inaequalis): 97%
O=C(Nc1ccccc1-c1ccc(Cl)cc1Cl)c1ccccc1C(F)(F)F [Compound 2]	–	chromatographic logP [1]: 4; pest or weed control at 100 g/ha (Podosphaera leucotricha): 100%; pest or weed control at 100 g/ha (Sphaerotheca fuliginea): 94%
Cc1cc(Cl)ccc1-c1ccccc1NC(=O)c1ccccc1C(F)(F)F [Compound 3]	–	chromatographic logP [1]: 4.14; pest or weed control at 100 g/ha (Podosphaera leucotricha): 99%; pest or weed control at 100 g/ha (Sphaerotheca fuliginea): 100%; pest or weed control at 100 g/ha (Venturia inaequalis): 100%
O=C(Nc1ccccc1-c1ccc(Br)cc1)c1ccccc1C(F)(F)F [Compound 5]	–	chromatographic logP [1]: 4.03; Efficacy in % (Alternaria solani): 94%
O=C(Nc1ccccc1-c1ccc(C(F)(F)F)cc1)c1ccccc1C(F)(F)F [Compound 6]	4.05	–
O=C(Nc1ccccc1-c1ccc(OC(F)(F)F)cc1)c1ccccc1C(F)(F)F [Compound 8]	4.20	–
CSc1ccc(-c2ccccc2NC(=O)c2ccccc2C(F)(F)F)cc1 [Compound 9]	3.89	–
O=C(Nc1ccccc1-c1ccc(C(F)(F)F)cc1)c1ccccc1Cl [Compound 11]	3.89	–
O=C(Nc1ccccc1-c1cccc(Cl)c1)c1ccccc1Cl [Compound 12]	–	chromatographic logP [1]: 3.75; pest or weed control at 100 g/ha (Podosphaera leucotricha): 100%; pest or weed control at 100 g/ha (Venturia inaequalis): 100%
O=C(Nc1ccccc1-c1ccc(OC(F)(F)F)cc1)c1ccccc1Cl [Compound 13]	4.08	–
CSc1ccc(-c2ccccc2NC(=O)c2ccccc2Cl)cc1 [Compound 14]	3.75	–
O=C(Nc1ccccc1-c1ccc(F)cc1)c1ccccc1Cl [Compound 15]	3.40	–
O=C(Nc1ccccc1-c1ccc(Br)cc1)c1ccccc1Br [Compound 16]	3.91	–
O=C(Nc1ccccc1-c1ccc(C(F)(F)F)cc1)c1ccccc1Br [Compound 17]	3.94	–
O=C(Nc1ccccc1-c1ccc(OC(F)(F)F)cc1)c1ccccc1Br [Compound 19]	4.08	–
CSc1ccc(-c2ccccc2NC(=O)c2ccccc2Br)cc1 [Compound 20]	3.78	–
O=C(Nc1ccccc1-c1ccc(F)cc1)c1ccccc1Br [Compound 21]	3.42	–
Cc1ccccc1C(=O)Nc1ccccc1-c1ccc(Br)cc1 [Compound 22]	3.86	–
Cc1ccccc1C(=O)Nc1ccccc1-c1ccc(C(F)(F)F)cc1 [Compound 23]	3.86	–
Cc1ccccc1C(=O)Nc1ccccc1-c1cccc(Cl)c1 [Compound 24]	3.72	–
Cc1ccccc1C(=O)Nc1ccccc1-c1ccc(OC(F)(F)F)cc1 [Compound 25]	4.03	–
CSc1ccc(-c2ccccc2NC(=O)c2ccccc2C)cc1 [Compound 26]	3.72	–
O=C(Nc1ccccc1-c1ccc(Br)cc1)c1ccccc1I [Compound 27]	4.00	–

SMILES	logP (pH 2.3) [1]	further results
O=C(Nc1ccccc1-c1ccc(C(F)(F)F)cc1)c1ccccc1I [Compound 28]	4.03	–
O=C(Nc1ccccc1-c1cccc(Cl)c1)c1ccccc1I [Compound 29]	3.86	–
O=C(Nc1ccccc1-c1ccc(OC(F)(F)F)cc1)c1ccccc1I [Compound 30]	4.21	–
CSc1ccc(-c2ccccc2NC(=O)c2ccccc2I)cc1 [Compound 31]	3.86	–
O=C(Nc1ccccc1-c1ccc(F)cc1)c1ccccc1I [Compound 32]	3.55	–
O=C(Nc1ccccc1-c1ccc(Cl)c(F)c1)c1ccccc1C(F)(F)F [Compound 34]	–	chromatographic logP [1]: 3.76; pest or weed control at 100 g/ha (Podosphaera leucotricha): 100%; pest or weed control at 100 g/ha (Sphaerotheca fuliginea): 95%; pest or weed control at 100 g/ha (Venturia inaequalis): 100%
O=C(Nc1ccccc1-c1ccc(F)c(Cl)c1)c1ccccc1C(F)(F)F [Compound 35, N-(3′-chloro-4′-fluoro-1,1′-biphenyl-2-yl)-2-(trifluoromethyl)benzamide]	–	chromatographic logP [1]: 3.81; pest or weed control at 100 g/ha (Podosphaera leucotricha): 100%; pest or weed control at 100 g/ha (Sphaerotheca fuliginea): 93%; pest or weed control at 100 g/ha (Venturia inaequalis): 100%
O=C(Nc1ccccc1-c1ccc(F)cc1F)c1ccccc1C(F)(F)F [Compound 36]	3.41	–
O=C(Nc1ccccc1-c1ccc(OC(F)(F)F)c(F)c1)c1ccccc1C(F)(F)F [Compound 37]	4.08	–
O=C(Nc1ccccc1-c1ccc(Cl)c(C(F)(F)F)c1)c1ccccc1C(F)(F)F [Compound 38]	4.18	–
Cc1ccc(-c2ccccc2NC(=O)c2ccccc2C(F)(F)F)cc1C(F)(F)F [Compound 39]	4.18	–
O=C(Nc1ccccc1-c1ccc(OC(F)(F)F)c(C(F)(F)F)c1)c1ccccc1C(F)(F)F [Compound 40]	4.41	–
O=C(Nc1ccccc1-c1ccc(F)c(C(F)(F)F)c1)c1ccccc1C(F)(F)F [Compound 41]	–	chromatographic logP [1]: 3.9; pest or weed control at 100 g/ha (Podosphaera leucotricha): 94%; pest or weed control at 100 g/ha (Sphaerotheca fuliginea): 100%
Cc1cc(-c2ccccc2NC(=O)c2ccccc2C(F)(F)F)ccc1Cl [Compound 42, N-(4′-chloro-3′-methyl-1,1′-biphenyl-2-yl)-2-(trifluoromethyl)benzamide]	–	chromatographic logP [1]: 4.18; pest or weed control at 100 g/ha (Podosphaera leucotricha): 100%; pest or weed control at 100 g/ha (Sphaerotheca fuliginea): 100%; pest or weed control at 100 g/ha (Venturia inaequalis): 100%
O=C(Nc1ccccc1-c1cc(Cl)cc(Cl)c1)c1ccccc1C(F)(F)F [Compound 43]	4.16	–
O=C(Nc1ccccc1-c1ccc(Cl)c(Cl)c1)c1ccccc1I [Compound 44]	4.06	–
O=C(Nc1ccccc1-c1ccc(Cl)cc1F)c1ccccc1C(F)(F)F [Compound 45]	3.68	–
O=C(Nc1ccccc1-c1ccc(Cl)cc1)c1ccccc1I [Compound 46]	3.74	–
O=C(Nc1ccc(F)cc1-c1ccc(Cl)c(Cl)c1)c1ccccc1C(F)(F)F [Compound 47]	4.11	–
O=C(Nc1c(F)cccc1-c1ccc(Cl)c(Cl)c1)c1ccccc1C(F)(F)F [Compound 48]	3.81	–
O=C(Nc1ccccc1-c1ccc(Cl)cc1)c1ccccc1Cl [Compound 49]	3.64	–
O=C(Nc1ccccc1-c1ccc(Cl)cc1)c1ccccc1Br [Compound 50]	3.66	–
O=C(Nc1ccccc1Br)c1ccccc1C(F)(F)F [IV-1, N-(2-bromophenyl)-2-(trifluoro-methyl)benzamide]	–	chromatographic logP [1]: 2.99
